This is an account of results in ChEMBL document CHEMBL1157539, “Thousands of chemical starting points for antimalarial lead identification” (Nature, 2010).

The test system of this experiment is Plasmodium falciparum. As to the kind of experiment: GSK_TCMDC: Inhibition of Plasmodium falciparum 3D7 in whole erythrocytes, using parasite LDH activity as an index of growth. Type of experiment: functional, organism-based.

For the setting “Plasmodium falciparum, 3D7”, `CC(CN(C)C)C(=O)Nc1cccc(-c2ccc(-c3nc4cc(F)ccc4[nH]3)s2)c1` (stereo not drawn) gave an XC50 of 801 nM. Same read-out and setting: then `CCc1cccc(-n2c(=O)c3cccnc3n2CC(=O)NCc2ccccc2Cl)c1`, with 741 nM; and `CCn1ccc2c(N3CCCCS3(=O)=O)cc(C(=O)N[C@@H](Cc3ccccc3)[C@H](O)CNC(C)(C)CCCC(C)C)cc21`, with 418 nM.

Consider `Cc1cccc2nc(-c3ccc(-c4ccc(CNCc5ccc(S(C)(=O)=O)cc5)cc4)cc3)[nH]c12`, for which, under “Plasmodium falciparum, 3D7”, the XC50 is 752 nM. Still for that read-out and setting: then `Cc1cccc(OCC(=O)Nc2cccc(NC(=O)COc3cccc(C)c3)n2)c1`, with 671 nM; and `Oc1cc(Nc2ccnc3cc(I)ccc23)c(F)cc1Cl`, with 832 nM; and `CCN(CC)CCCC(C)Nc1ccnc2ccc(OC)cc12` (stereo not drawn), with 822 nM.

Where the note is “Plasmodium falciparum, 3D7”, `Cc1ccc(NC(=O)c2ccc(Cl)c(Cl)c2)cc1-c1ccc(C(=O)Nc2ccncc2)cc1` registered an XC50 of 567 nM. Still for that read-out and setting: as for `O=C(N/C=N/c1cc([N+](=O)[O-])c(-c2ccncc2)n1-c1ccccc1)c1cccc(O)c1`, the figure is 331 nM; as for `Cc1ccc(Cn2ncc(N3CCNCC3)c(Cl)c2=O)cc1NC(=O)Nc1ccc(-c2ccccc2)cc1`, 1120 nM; as for `Cc1cc(C(=O)Nc2ccc3c(c2)CCN3C2CCN(Cc3ccc(O)cc3)C2)no1` (stereo not drawn), 774 nM. Still for that read-out and setting: as for `COc1ccc(OC)c(NC(=O)c2c(-c3c(F)cccc3Cl)noc2C)c1`, the figure is 701 nM. Under “Plasmodium falciparum, 3D7”, `COc1cc2nccc(Nc3ccc(NC(=O)c4ccc(C)cc4)c(O)c3)c2cc1OC` gave an XC50 of 174 nM. Still for that read-out and setting: as for `CC1(C)N=C(N)N=C(N)N1c1cc(Cl)c(Cl)cc1Cl`, the figure is 181 nM. Still for that read-out and setting: then `COc1ccc(C2C(C(=O)Nc3ccc(C)c(F)c3)c3cc(OC)c(OC)cc3C(=O)N2C)cc1` (stereo not drawn), with 956 nM; and `CO/C(=C\C=C\c1cc2cc(Cl)c(Cl)cc2[nH]1)C(=O)NCCCN1CC(C)N(C)CC1C` (stereo not drawn), with 1130 nM; and `CCCCCCCN(Cc1ccc(OC(C)(C)C(=O)OCC)cc1)C(=O)Cc1ccc(F)cc1F`, with 1030 nM.

Molecule `Cc1ccc(Cn2nc(N3CCNCC3)ccc2=O)cc1NC(=O)Nc1ccc(-c2ccccc2)cc1` had an XC50 (Plasmodium falciparum, 3D7) of 836 nM. The same measure, in the same setting: then `CCOc1ccc(Cc2c(C)nc3nc(N)nc(N)c3c2C)cc1`, with 1060 nM. Where the note is “Plasmodium falciparum, 3D7”, `Cc1cc(N)nc2ccc(CNCCc3ccccc3Br)cc12` showed an XC50 of 120 nM. The same measure, in the same setting: then `COC(=O)/C=C/c1ccc(CCC(C)NCC(O)c2cccc(Cl)c2)cc1` (stereo not drawn), with 935 nM.

On to `O=C(Nc1ccc(Cn2ncc(N3CCCNCC3)c(Cl)c2=O)cc1)Nc1ccc(-c2ccccc2)cc1`, for which the XC50 came to 815 nM. Where the note is “Plasmodium falciparum, 3D7”, `O=C(NCCCCCN1CCC(c2c[nH]c3ccccc23)CC1)Nc1cccc(Br)c1` displayed an XC50 of 1110 nM.

As for `Cc1cc(N(C)C2CCN(C)CC2)nc(Nc2ccc(Cl)cc2)n1`, the XC50 (Plasmodium falciparum, 3D7) stood at 290 nM. In the case of `C=CCn1c(SCC(=O)Nc2cc(Cl)ccc2Cl)nc2sc(C)cc2c1=O`, the XC50 (Plasmodium falciparum, 3D7) is 71.6 nM.

`COc1ccc2nccc([C@@H](O)CN3CCC(NCc4cc5cccc(O)c5[nH]4)CC3)c2c1` gave an XC50 (Plasmodium falciparum, 3D7) of 836 nM. Same read-out and setting: as for `Cc1cc(O)nc(NC(=N)NOCc2ccccc2)n1`, the figure is 423 nM.

Under “Plasmodium falciparum, 3D7”, `COC(=O)COc1cc(C(=O)NCCCCN2CCC(c3ccc4c(c3OC)CCCC4)CC2)ccc1-c1ccc(Cl)cc1` gave an XC50 of 257 nM. Same read-out and setting: then `O=C1NC(C(=O)Nc2ccccc2)C(c2ccccc2)S1` (stereo not drawn), with 168 nM; and `CC(=O)Nc1ccc(S(=O)(=O)Nc2c(C)cc(Cc3cnc(N)nc3N)cc2C)cc1`, with 1000 nM; and `Fc1ccc2[nH]c(-c3cccc(-c4ccc(CNCCc5ccncc5)cc4)c3)nc2c1`, with 115 nM.

`O=C(C=Cc1ccc(Cl)c(Cl)c1)NCCCCCN1CCCC(CCCNC(=O)c2cccs2)C1` (stereo not drawn) gave an XC50 (Plasmodium falciparum, 3D7) of 1300 nM.

Consider `COc1ccc(C(=O)Nc2cc(Br)c3c(c2)CNCC3)cc1Br`, for which, for the setting “Plasmodium falciparum, 3D7”, the XC50 turned out to be 915 nM. Still for that read-out and setting: then `O=C(Nc1cccc(CN2CCN(C(=O)c3cccc(F)c3)CC2)c1)c1ccco1`, with 775 nM; and `O=C(Nc1cccc(-c2nn3ncccc3c2-c2ccnc(Nc3cccc(-c4cnco4)c3)n2)c1)c1c(F)cccc1F`, with 166 nM; and `N#CN1CC[C@@H](NS(=O)(=O)Cc2ccc(Cl)c(Cl)c2)C1`, with 532 nM. Same read-out and setting: then `CN(C)CC1c2[nH]c3ccccc3c2CCN1C(=O)Nc1ccc(Cl)c(Cl)c1` (stereo not drawn), with 1210 nM; and `CN=c1nc(NN=Cc2ccccc2Cl)[nH]c(=Nc2cccc(C(F)(F)F)c2)[nH]1`, with 915 nM. Same read-out and setting: then `COC(=O)c1c(C#N)c(OC)cc(O)c1CSC[C@H](Nc1nc(-c2ccc([N+](=O)[O-])cc2)cs1)C(=O)NCCN1CCCCC1`, with 1060 nM; and `OCC1CCN(Cc2ccc(-c3cccc(-c4nc5ccccc5[nH]4)c3)cc2)CC1`, with 813 nM. In turn, `CCCCN(CCCC)/C(=N/C(=N)Nc1ccc(Cl)cc1)NCCCCCCN/C(=N\C(=N)Nc1ccc(Cl)cc1)N(CCCC)CCCC` came in with an XC50 (Plasmodium falciparum, 3D7) of 791 nM. Still for that read-out and setting: as for `COc1ccc(CCNc2ccnc3cc(Cl)ccc23)cc1OC`, the figure is 891 nM. On the same count and under the same terms, as for `Nc1c2c(nc3ccc(C(=O)Nc4cc(I)c(O)c(I)c4)cc13)CCCC2`, the figure is 1010 nM; as for `N#Cc1cccc(NC(=O)Nc2ccc3c(c2)CN(Cc2c[nH]c4ncccc24)C3)c1`, 800 nM; as for `COc1ccc(OC)c(C=CC(=O)NC2CCC(CN3CCC(c4c[nH]c5ccccc45)CC3)CC2)c1` (stereo not drawn), 653 nM. Same read-out and setting: as for `CC(C)CCCC(C)(C)NC[C@@H](O)[C@H](Cc1ccccc1)NC(=O)c1cccc(OCC2CC2)c1`, the figure is 843 nM; as for `CO/C(=C\C=C\c1cc2cc(Cl)c(Cl)cc2[nH]1)C(=O)NCCCN1CCN(c2cccc(OCC(=O)Nc3ccccc3)c2)CC1`, 504 nM; as for `NC1=NC2(CCCCC2)N(Cc2ccc(Cl)c(Cl)c2)C(N)=N1`, 623 nM. Take `COCCNCc1cccc(-c2ccc(CN(C(=O)NC3CCCCC3)C3CCN(Cc4ccccc4)CC3)cc2)c1`: the XC50 (Plasmodium falciparum, 3D7) is 759 nM.

For the setting “Plasmodium falciparum, 3D7”, `CC(=O)CC(=O)N1CCN(c2ccccc2)CC1` yielded an XC50 of 1060 nM. `c1ccc2nc(NCCCCCCCCNc3ccc4ccccc4n3)ccc2c1` yielded an XC50 (Plasmodium falciparum, 3D7) of 272 nM.

Turning to `O=C(Cc1c[nH]cn1)Nc1cccc(-c2ccc(-c3nc4cc(C(F)(F)F)ccc4[nH]3)s2)c1`, under “Plasmodium falciparum, 3D7”, the XC50 is 773 nM. Still for that read-out and setting: as for `Fc1ccc2[nH]c(-c3ccc(-c4cccc(CN5CCN(c6ccncc6)CC5)c4)cc3)nc2c1`, the figure is 85.7 nM; as for `Cc1cccc2nc(-c3cccc(-c4cccc(NC(=O)c5cnn6cccnc56)c4)c3)[nH]c12`, 671 nM; as for `COCc1nc(N)nc(N)c1-c1ccc(Cl)c(Cl)c1`, 1020 nM. In the case of `CC(C)(C)c1ccc(N2C(N)=NC(N)=NC2(C)C)cc1`, under “Plasmodium falciparum, 3D7”, the XC50 came to 26.7 nM.

As for `Cc1cccc2nc(-c3ccc(-c4cccc(CNCCCN5CCCC5=O)c4)s3)[nH]c12`, the XC50 (Plasmodium falciparum, 3D7) came out at 590 nM. Molecule `N=C(NCC1CC1c1ccccc1)c1cccc(C(=N)NCC2CC2c2ccccc2)n1` (stereo not drawn) yielded an XC50 (Plasmodium falciparum, 3D7) of 1760 nM. `CC(C)C[C@@H](/C=N/N1CC(=O)NC1=O)NC(=O)[C@H](CC(C)C)NC(=O)c1ccc(OCCN2CCOCC2)cc1`: the XC50 (Plasmodium falciparum, 3D7) came out at 270 nM.

`Cc1cc(OCCCN2CCC(NS(=O)(=O)c3ccc(Cl)c(Cl)c3)CC2)c2ccccc2n1`: under “Plasmodium falciparum, 3D7”, the XC50 was 897 nM. `CC(C)COc1ccc(Cl)cc1Cc1nc(-c2nc3ccc(CN4CCCC4)cc3[nH]2)co1`: for the setting “Plasmodium falciparum, 3D7”, the XC50 stood at 727 nM.

`COc1ccc(CCNC(=O)c2ccccc2O)cc1-c1ccc(C(C)(C)C)cc1`: where the note is “Plasmodium falciparum, 3D7”, the XC50 stood at 563 nM.

In turn, `CNC(=O)c1cnc(Nc2ccc(N3CCOCC3)cc2)nc1Nc1cccc(O)c1` showed an XC50 (Plasmodium falciparum, 3D7) of 808 nM. As for `CC(C)(C)c1nn(-c2ccc(Cl)cc2)c2[nH]c(=O)c(CNC3CCCC3)cc12`, the XC50 (Plasmodium falciparum, 3D7) turned out to be 234 nM. On the same count and under the same terms, then `CC(=O)c1ccc(Nc2c(C(N)=O)cnc3cc(-c4c(C)noc4C)ccc23)cc1`, with 195 nM.

On to `COc1ccc(NC(=O)/C=C/c2ccccc2Cl)cc1OCCN1CCC(O)(c2ccc(Cl)c(C(F)(F)F)c2)CC1`, for which the XC50 (Plasmodium falciparum, 3D7) was determined as 637 nM. Still for that read-out and setting: as for `CC(C)NCC(O)COc1ccc(Cc2ccc(OCC(O)CNC(C)C)cc2)cc1` (stereo not drawn), the figure is 654 nM; as for `O=C(CC1CCCCC1)NCC(NCCCNc1cc(=O)c2ccccc2[nH]1)c1cc(Br)cc(Br)c1` (stereo not drawn), 1050 nM; as for `CN(C)c1cc(NN=Cc2cc(Cl)ccc2O)nc(N(C)C)n1`, 703 nM. The same measure, in the same setting: as for `COc1cc(C=NNc2ccnc3cc(Cl)ccc23)ccc1O`, the figure is 134 nM; as for `CN(C)c1cccc(CCNCCc2c[nH]c3ccc(Cl)cc23)c1`, 436 nM; as for `Cc1cccc(Nc2nc(C)cc(N3CCCN(CC4CCCCC4)CC3)n2)c1`, 1120 nM. Take `O=S(=O)(Nc1ccc2nccc(N3CCNCC3)c2c1)c1ccc(-c2ccccc2)cc1`: the XC50 (Plasmodium falciparum, 3D7) worked out at 977 nM. On to `CC(C)COc1ccc(Cl)cc1Cc1ccc(-c2nc3cnc4ccccc4c3[nH]2)o1`, for which the XC50 (Plasmodium falciparum, 3D7) worked out at 1260 nM. Regarding `Cc1c(S(=O)(=O)Nc2ccc3nccc(N4CCN[C@H](C)C4)c3c2)sc2ccc(Cl)cc12`, under “Plasmodium falciparum, 3D7”, the XC50 stood at 842 nM. On the same count and under the same terms, as for `COc1cc(CN/C(=N/c2ccc(-c3ccccc3)cc2)Nc2ccc(C#N)cc2O)cc(OC)c1`, the figure is 718 nM; as for `CN(C)CCNCc1cccc(-c2ccc3c(Nc4cc(O)c(Cl)cc4F)ccnc3c2)c1`, 549 nM; as for `Cc1cccc2nc(-c3cccc(-c4cccc(NC(=O)Cc5ccc[n+]([O-])c5)c4)c3)[nH]c12`, 635 nM. Regarding `Cc1ccc(NC(=O)c2ccc3ncccc3c2)cc1OC1CCN(Cc2ccc(F)cc2)CC1`, the XC50 (Plasmodium falciparum, 3D7) came out at 944 nM. The same measure, in the same setting: then `Cc1cc(=O)c(-c2ccc(Oc3ccc(Cl)cc3Cl)cc2)c(C)[nH]1`, with 841 nM. Same read-out and setting: as for `CC(=O)c1ccc(-n2ccnc2)cc1`, the figure is 852 nM; as for `Cc1cc(N[C@@H](CC(C)C)C(=O)NCc2cccs2)nc(NCCc2cccs2)n1`, 1020 nM.

For the setting “Plasmodium falciparum, 3D7”, `Cc1ccc(Nc2nccc(NCC(O)c3ccc(C(F)(F)F)cc3)n2)cc1` (stereo not drawn) came in with an XC50 of 491 nM.

Molecule `Clc1ccc(Cc2nc3ccccc3[nH]2)cc1Cl` registered an XC50 (Plasmodium falciparum, 3D7) of 246 nM. Same read-out and setting: as for `COC(=O)c1cccc(NC(=O)NC2CCN(c3ccnc(NCc4ccc(F)cc4)n3)CC2)c1`, the figure is 809 nM; as for `COc1ccccc1C1CCN(CCN2CCC(NC(=O)c3ccc(-c4ccc(C#N)cc4)cc3)CC2)CC1`, 792 nM.

`CC(Oc1cc(-n2cnc3ccc(NC(=O)CCN4CCCCC4)cc32)sc1C(N)=O)c1ccccc1Cl` (stereo not drawn): the XC50 (Plasmodium falciparum, 3D7) amounted to 400 nM.

For `CC(C)(C)c1ccc(CN2CCC(CNC(=O)c3cc(-c4cccc(F)c4)cs3)C2)cc1` (stereo not drawn), where the note is “Plasmodium falciparum, 3D7”, the XC50 stood at 898 nM.
